Experimental data as given in patent publication US12370155B2, “Anticancer composition” (NOAHM INC., priority 2018, dated 2025).
Counter-ions that a name gives are not always drawn.

Key:
Assay type in all cases: in vivo, BALB/c nude mice
[1] = tested on: 4T1 cells, breast cancer cells; experiment: Tumor weight in 4T1 tumor-bearing mice; details: day 19 of administration; intraperitoneal; MET 250, 2DG 500, IP6 500, Ins 500 mg/kg (four-combination: IP6 250 + Ins 250 mg/kg); control 1.244±0.22; mean±SD
Procedure: (§1) Five-week-old, female specific pathogen free BALB/c nude mice were purchased and used from Orient Bio Co., Ltd. After quarantine and adaptation for one week, healthy animals without weight loss were selected and used in the test. The test animals were raised in a breeding environment set at a temperature of 23±3° C., a relative humidity of 50±10%, the ventilation number of 10 to 15 times/hour, lighting time of 12 hours (08:00 to 20:00), and illuminance of 150 to 300 Lux. During a pre-test period, the test animals were allowed to freely consume solid feed for the test animals (Cargill Agripurina Co., Ltd.) and drinking water.
(§2) After an adaptation period for one week, in BALB/c nude mice, 4T1 cells (1×10 ^5 cells/mouse), breast cancer cells, were injected to the left breast adipose tissues of the test animals, and then the tumor tissues were visually observed. When the tumor tissue size of the test animals was about 100 mm ^3, the test animals were divided into 9 test groups based on a randomized block design. That is, the 9 test groups were classified into a control group, a MET group (MET 250 mg/kg), a 2DG group (2DG 500 mg/kg), an Ins group (Ins 500 mg/kg), a IP6 group (IP6 500 mg/kg), a MET+2DG group (MET 250 mg/kg+2DG 500 mg/kg), a MET+2DG+Ins group (MET 250 mg/kg+2DG 500 mg/kg+Ins 500 mg/kg), a MET+2DG+IP6 group (MET 250 mg/kg+2DG 500 mg/kg+IP6 500 mg/kg), a MET+2DG+IP6+Ins group (MET 250 mg/kg+2DG 500 mg/kg+IP6 250 mg/kg+Ins 250 mg/kg), and each test group used 10 test animals. The test substance was dissolved in distilled water and intraperitoneally administered at fixed time for 18 days.
[…] The blood was placed in a serum separate tube (Becton Dickinson) and left at room temperature for 30 minutes and centrifuged at 3,000 rpm for 20 minutes to isolate serum and the isolated serum was stored at −70° C. until analysis. […] Tumors were weighed and some were fixed in 10% neutral buffered formalin (NBF, Sigma-Aldrich Co.) and embedded in paraffin to perform tissue immunostaining. The lung was fixed with a Bouin's solution (Sigma-Aldrich Co.), and the tumor nodule metastasized to the lung was observed and a lung metastasis rate was examined.

[2] = tested on: 4T1 cells, breast cancer cells; experiment: Tumor volume in 4T1 tumor-bearing mice; details: day 18 of administration; intraperitoneal; MET 250, 2DG 500, IP6 500, Ins 500 mg/kg (four-combination: IP6 250 + Ins 250 mg/kg); control 1486.8±67.0; mean±SD
Procedure: as §1, §2
The body weight of the test animal during the test period was measured at a fixed time once a week from the test substance administration date. A tumor volume was measured by using a digital caliper every three days, the length and width of the tumor were measured, and the tumor volume was calculated by substituting the following Equation. Tumor volume (mm^3)=(width^2×length)/2

[3] = tested on: 4T1 cells, breast cancer cells; experiment: Incidence of lung metastasis in 4T1 tumor animal model; details: 10 animals per group; intraperitoneal; control 100%
Procedure: as §1, §2
After 14 days of administration of the test substance, the test animals were anesthetized using an anesthetic made by diluting tribromoethanol with tert-amyl alcohol and the blood was collected from the orbit. The blood was placed in a serum separate tube (Becton Dickinson) and left at room temperature for 30 minutes and centrifuged at 3,000 rpm for 20 minutes to isolate serum and the isolated serum was stored at −70° C. until analysis. After taking the blood from the test animals, the tumor was extracted and weighed. Tumors were weighed and some were fixed in 10% neutral buffered formalin (NBF, Sigma-Aldrich Co.) and embedded in paraffin to perform tissue immunostaining. The lung was fixed with a Bouin's solution (Sigma-Aldrich Co.), and the tumor nodule metastasized to the lung was observed and a lung metastasis rate was examined.

SMILES	tumor weight [1] [g]	tumor volume [2] [mm^3]	incidence of lung metastasis [3] [%]
OCC1O[C@H](O)C[C@@H](O)[C@@H]1O (mixture of isomers) [2DG, 2-deoxy-D-glucose]	1.092 ± 0.18	1350.3±55.2	100
O=P(O)(O)O[C@H]1[C@H](OP(=O)(O)O)[C@@H](OP(=O)(O)O)[C@H](OP(=O)(O)O)[C@@H](OP(=O)(O)O)[C@H]1OP(=O)(O)O [IP6, inositol hexaphosphate]	0.874 ± 0.18	1108.5±66.3	90
O[C@H]1[C@H](O)[C@@H](O)[C@H](O)[C@@H](O)[C@H]1O [Ins, myo-inositol]	0.904 ± 0.20	1190.1±67.3	90
CN(C)C(=N)NC(=N)N [MET, Metformin HCl]	1.134 ± 0.15	1400.5±58.6	100
